In paper PMC12909347, “Disconnect between in vitro and in vivo efficacy of the MPS1 inhibitor NTRC 0066-0 against glioblastoma” (Cellular Oncology, 2026):

Assays:
[1] = target: T1, BCRP (Mus musculus, UniProt Q7TMS5); assay: Brain penetration in Abcg2-/- mice; type: in vivo; details: 1 h after 5 mg/kg i.v.
T1 construct: from tissue; host or cells: blood-brain barrier / brain of FVB mice (WT versus Abcg2-/-)
T1 sequence (Q7TMS5 1-657): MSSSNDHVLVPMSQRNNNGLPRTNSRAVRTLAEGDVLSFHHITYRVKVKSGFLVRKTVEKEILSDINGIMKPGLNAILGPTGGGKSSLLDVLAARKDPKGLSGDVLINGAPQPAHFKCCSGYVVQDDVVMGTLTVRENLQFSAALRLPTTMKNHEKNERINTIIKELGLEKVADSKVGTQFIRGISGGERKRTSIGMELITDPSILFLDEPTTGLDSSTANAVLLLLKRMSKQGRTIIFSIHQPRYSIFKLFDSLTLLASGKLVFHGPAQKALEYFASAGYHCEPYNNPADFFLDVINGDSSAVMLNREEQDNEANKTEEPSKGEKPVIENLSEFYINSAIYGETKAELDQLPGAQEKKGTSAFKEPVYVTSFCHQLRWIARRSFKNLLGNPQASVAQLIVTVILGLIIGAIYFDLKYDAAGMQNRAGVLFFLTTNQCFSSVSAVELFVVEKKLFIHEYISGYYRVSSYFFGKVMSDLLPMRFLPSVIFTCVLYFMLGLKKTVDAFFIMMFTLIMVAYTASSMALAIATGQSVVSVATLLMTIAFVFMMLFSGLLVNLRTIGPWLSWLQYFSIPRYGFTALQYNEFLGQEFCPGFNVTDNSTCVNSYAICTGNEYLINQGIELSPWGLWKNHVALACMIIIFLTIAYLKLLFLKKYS
Method: The pharmacokinetics of NTRC 0066-0 were analyzed in wild-type (WT), Abcb1a/b^−/−, Abcg2^−/−, Abcb1a/b^−/−;Abcg2^−/− and Abcb1a/b^−/−;Abcg2^−/−;Abcc4^−/− FVB mice. All knockout mice strains have been developed at the Netherlands Cancer Institute. For i.v. administration, NTRC0066-0 was formulated in DMSO: Cremophor EL: saline (1:1:8 v/v) and injected at a dose of 5 mg/kg. For i.p and oral administration, NTRC0066-0 was administered at 5, 10 or 20 mg/kg as indicated. Serial blood sampling was done by tail vein bleeding at specific time points. At terminal time points, blood was drawn by cardiac puncture followed by tissue collection. Plasma was obtained from whole blood by centrifugation (5 min, 5,000 rpm, 4 °C) and tissues were weighed and homogenized using a FastPrep®-24 (MP-Biomedicals, NY) in 1% (w/v) bovine serum albumin (Sigma-Aldrich) in water.
NTRC 0066-0 was extracted from in vitro and in vivo samples using liquid–liquid extraction with diethyl ether. Another MPS-1 inhibitor, Compound 5 (Cpd-5), was added to the samples as an internal standard. The dried organic phase was reconstituted in 30% methanol in water (v/v). Samples were measured using an LC-MS/MS system comprising an UltiMate 3000 LC Systems (Dionex, Sunnyvale, CA) and an API 4000 mass spectrometer (Sciex, Framingham, MA). […]

[2] = test system: MELpT-KNL1; assay: MELpT-KNL1 foci in E98 tumors (target inhibition); type: in vivo, mice; details: last day of 5/10 mg/kg b.i.d.x7d schedule
Method: Mouse heads were fixed in 4% (v/v) formaldehyde and 5% (v/v) glacial acetic acid overnight, and subsequently decalcified in 6.5% (v/v) formic acid at 37 °C for 4 days. Decalcified tissues were paraffin embedded and cut into 4 μm coronal sections that were stained with hematoxylin and eosin (H&E), and for human Vimentin (1:4,000; M0725; DakoCytomation; Glostrup, Denmark), P-gp (1:200; 13978; Cell Signaling Technology; Danvers, MA), BCRP (1:400; ab24115; Abcam; Cambridge, UK), mouse IgG (K4001, Dako) and MELpT-KNL1 (1:50; as described previously). Sections were imaged and processed using an Aperio AT2 system and ImageScope software (v12; both Leica). MELpT-KNL1 foci were imaged using an Axio Observer Z1 system (Carl Zeiss AG; Oberkochen, Germany).

[3] = test system: P-gp; design: method as in PMID 26153498; details: calcein-AM efflux assay; cited from earlier work

CCc1cccc(CC)c1NC(=O)c1ccn2c1CCc1cnc(Nc3ccc(N4CCN(C)CC4)cc3OC)nc1-2 [NTRC 0066-0]
Plasma and brain concentrations compared to WT mice [1]: no differences
Duration of reduction in MELpT-KNL1 foci in pro-/metaphase cells [2]: at least 24 h
Inhibition of P-gp activity [3]: does not inhibit the activity of P-gp
